Source: patent US8067427B2 (AstraZeneca AB, priority 2004, dated 2011)
Values after ≈ are worked out from the molar mass of the structure shown.

How the values were obtained:
[1] = Strain rate sensitivity (SRS); assay type: physicochemical; details: percent increase in yield pressure from slow to fast punch velocity
Source text: (§1) The mechanical properties of materials such as powders may be described in terms of the following characteristics: • (a) Hardness, or resistance to deformation, which can be measured by an indentation hardness test; • (b) Yield pressure (denoted Py and also known as yield stress), that is the point at which plastic deformation occurs, which can be measured by compaction studies; • (c) Strain Rate Sensitivity (SRS), that is the percent increase in yield pressure from slow to fast punch velocity, which can be measured by compaction studies; and • (d) Modulus of Elasticity, that is the ratio of stress to elongation (strain), which can be measured by numerous methods that are well known to a person skilled in the art of formulation.
Materials can, in general, be classified by the way in which they deform under compressive force, either by brittle fracture or by plastic deformation. The degree of deformation for a brittle material is independent of the rate and duration of the compression event (that is the compression applied), giving a strain rate sensitivity value for such materials of 0% (zero %). […]
The strain rate sensitivity of a material can be calculated using the mean yield pressures (Py) calculated for a material at fast (300 mm s^−1) and slow (0.033 mm s^−1) punch velocities. […]

[2] = Yield pressure test (compaction simulator, Heckel plot); assay type: physicochemical
Source text: as §1
The yield pressure of a material can be determined by compressing it in a compaction simulator using a simple uniaxial saw tooth displacement/time profile and measuring the corresponding forces. The compaction simulator is fitted with 10 mm flat-faced punches and the material is compressed to zero porosity at a specific punch velocity. The force/displacement data generated are manipulated to produce a Heckel plot and the yield pressure is equivalent to the […] of the Heckel plot. This test can be performed at different punch velocities to determine the effect of scale-up on the deformation characteristics of the material. […]

[3] = test system: tumour models; details: range of models, once-daily oral administration; cited from earlier work
[4] = Solubility in water
[5] = test system: VEGF RTK; details: cited from earlier work
[6] = physchem; details: water, 25 °C

Row | SMILES | strain rate sensitivity [1] [%] | yield pressure [2] [MPa] | anti-tumour activity [3] | solubility class per British Pharmacopoeia 2001-2002 classification system [4] | inhibition of VEGF RTK [5] | solubility [6] [µg/mL]
1 | O.OC[C@H]1O[C@@H](O[C@H]2[C@H](O)[C@@H](O)C(O)O[C@@H]2CO)[C@H](O)[C@@H](O)[C@H]1O (stereo partly shown) [Lactose monohydrate] | 19.4 | – | – | – | – | –
2 | COc1cc2c(Nc3ccc(Br)cc3F)ncnc2cc1OCC1CCN(C)CC1 [ZD6474, 4-(4-bromo-2-fluoroanilino)-6-methoxy-7-(1-methylpiperidin-4-ylmethoxy)quinazoline] | 197 | 22 | broad-spectrum anti-tumour activity | practically insoluble | potent inhibitor | 33 (≈ 69.4 µM)
